{"source": "patent US8633166B2", "about": "“Methicillin-resistant Staphylococcus aureus active metabolites” (priority 2009, dated 2014)", "key": {"[1]": {"system": "Methicillin-resistant Staphylococcus aureus", "assay": "In vivo MRSA assay, thigh infection in a murine model", "set-up": "species or system Mice (CD-1)", "settings": "for number of MRSA recovered from muscle tissue: 48 hours, neutropenic mice", "procedure": "The in vivo antimicrobial activity for the isolated glycosides is represented in FIGS. 2A and 2B. Mice (CD-1) were purchased from Harlan Inc. and acclimatized up to 5 days before use. Food and water were available ad libitum throughout the study. They were rendered neutropenic by two injections of cyclophosphamide (100 mg/kg) given intraperitoneally, one and four days before infection. A volume of 50 uL suspension of Methicillin-resistant Staphylococcus aureus (1.5×10^6 live organisms) was injected intramuscularly (1M) into each of the two rear thighs. Each thigh was considered as an individual data point (total of 4 data points for each treatment). These mice were randomly distributed into the control or treatment groups (n=2/group).\nTreatment with the test compound (1) was initiated via the intraperitoneal route 2 hrs after thigh inoculation. Control animals were concurrently administered saline (mock treatment) or vancomycin in the same volume as those receiving compound (1). All animals were sacrificed after 48 hours by CO2 inhalation. Immediately following sacrifice, thigh tissue was collected from the animals, weighed, and homogenized in 5.0 mL of saline. Thigh muscle homogenate was then processed for microbiological assay to determine the number of MRSA cfu per gram of muscle tissue."}, "[2]": {"assay": "Maximum tolerated dose, preliminary experiment", "assay_type": "in vivo, Mice (CD-1)", "settings": "20 mg/kg IP for two days", "procedure": "The number of MRSA isolated from vancomycin treated animals was 2.2×10^7 g of tissue, a reduction of 72% compared to vehicle control. Similarly, the number of MRSA recovered after treatment with compound (I) at 3 mg/kg and 15 mg/kg were 2.6×10^7 and 1.8×10^7 respectively, which correspond to a reduction of 67% and 78% as compared to vehicle control. […] To determine the maximum tolerated dose in the preliminary experiment, a maximum of 20 mg/kg of compound (1) was giving IP for two days."}, "streptococci": {"system": "streptococci", "assay": "In vitro MIC, streptococci", "assay_type": "cell-based, Streptococcus", "settings": "highest concentrations considered for MIC readings", "procedure": "All test articles were dissolved in DMSO. Stock solutions were prepared at 40-fold the highest concentration in the test plate. The final concentration of DMSO in the test system was 2.5%.\nThe medium employed for the MIC assay was Mueller Hinton II Broth (MHB II-Becton Dickinson, #212322, Lot #9044411) for most of the organisms. MHB II was supplemented with 2% lysed horse blood (Cleveland Scientific Lot #22299-1) to accommodate the growth of Streptococcus pneumoniae, Streptococcus pyogenes and Streptococcus agalactiae. The media were prepared at 102.5% the normal weight to offset the dilution created by the addition of 5 μL drug solution to each well of the microdilution panels. […]\nPlates were stacked 3 high, covered with a lid on the top plate, placed in plastic bags, and incubated at 35° C. for approximately 18 hours for most of the isolates. The Streptococcus plates were read after 20 hours of incubation. […] The MIC was read and recorded as the lowest concentration of drug that inhibited visible growth of the organism."}}}
{"smiles": "C[C@@H]1O[C@@H](Oc2c(-c3ccc(O)cc3)oc3cc(O)cc(O)c3c2=O)[C@H](OC(=O)/C=C/c2ccc(O)cc2)[C@H](OC(=O)/C=C/c2ccc(O)cc2)[C@H]1O", "note": "[Compound 1, kaempferol 3-O-α-L-(2″,3″-di-E-p-coumaroyl)rhamnoside]", "values": [{"measurement": "reduction compared to vehicle control", "setting": "[1]; 3 mg/kg", "value": 67, "unit": "%"}, {"measurement": "number of MRSA recovered from muscle tissue", "setting": "[1]; 3 mg/kg intraperitoneal", "value": "2.6×10^7 cfu/g"}, {"measurement": "reduction compared to vehicle control", "setting": "[1]; 15 mg/kg", "value": 78, "unit": "%"}, {"measurement": "number of MRSA recovered from muscle tissue", "setting": "[1]; 15 mg/kg intraperitoneal", "value": "1.8×10^7 cfu/g"}, {"measurement": "acute toxicity at maximum dose given", "setting": "[2]", "value": "No untoward effect"}, {"measurement": "activity against the streptococci", "setting": "streptococci", "value": "Neither compound was active"}]}
